Measured values taken from patent US10273248B2, “Glucose uptake inhibitors” (Kadmon Corporation LLC, priority 2015, dated 2019).

System: glycolysis in HT1080 cells
Test: Glycolysis assay: oligomycin plus compound, cellular ATP by Cell Titer Glo
Type: cell-based
Conditions: 10 μM oligomycin, one hour, class symbols
Excerpt: Therefore, an assay was developed that utilizes the combination of the glucose uptake inhibitors disclosed herein with oligomycin, a well-characterized inhibitor of ATP synthase. Because oligomycin inhibits ATP derived from oxidative phosphorylation, any remaining ATP production is derived from glycolysis. By reading out cellular ATP levels using the Promega Cell Titer Glo kit, the extent of glycolysis inhibition by the glucose uptake inhibitors disclosed herein can be assessed. […] Utilizing this experimental set-up, the IC50 of glycolysis inhibition for each compound can be determined.
Determination of Glucose Uptake/GLUT Activity (Glycolysis Assay):
HT1080 cells (as well as other cell types) were plated to confluency in 96-well plates. Cells were exposed to the combination of 10 μM Oligomycin (to block mitochondrial-derived ATP) and the glucose uptake inhibitors disclosed herein for one-hour, after which glycolytically-derived ATP was measured with the Cell Titer-Glo assay kit (Promega). Dose-response curves of the glucose uptake inhibitors disclosed herein were used to determine the IC50 for GLUT activity.

For `O=C(Nc1cccc(-c2nc(Nc3ccc(-c4cn[nH]c4)cc3)c3sccc3n2)c1)c1cccnc1` [Example 43, N-(3-(4-((4-(1H-pyrazol-4-yl)phenyl)amino)thieno[3,2-d]pyrimidin-2-yl)phenyl)nicotinamide], the IC50 was 0.101 to 0.25 µM.

Same assay, conditions: Homo sapiens, HT-1080, 1 h, 10 μM oligomycin, one hour, class symbols

`O=C(CN1CCOCC1)Nc1cccc(-c2nc3c(c(Nc4ccc(-c5cn[nH]c5)cc4)n2)COC3)c1` [Example 2, N-(3-(4-((4-(1H-pyrazol-4-yl)phenyl)amino)-5,7-dihydrofuro[3,4-d]pyrimidin-2-yl)phenyl)-2-morpholinoacetamide] and `O=C(CN1CCOCC1)Nc1cccc(-c2nc(Nc3ccc(-c4cn[nH]c4)cc3)c3occc3n2)c1` [Example 4, N-(3-(4-((4-(1H-pyrazol-4-yl)phenyl)amino)furo[3,2-d]pyrimidin-2-yl)phenyl)-2-morpholinoacetamide] cannot be ordered by IC50: greater than 1 µM for the first, greater than 1 µM for the second.

`CC(C)NC(=O)COc1cccc(-c2nc(Nc3ccc(-c4cn[nH]c4)cc3)c3occc3n2)c1` [Example 3, 2-(3-(4-((4-(1H-pyrazol-4-yl)phenyl)amino)furo[3,2-d]pyrimidin-2-yl)phenoxy)-N-isopropylacetamide] and `O=C(COc1cccc(-c2nc(Nc3ccc(-c4cn[nH]c4)cc3)c3occc3n2)c1)NC1CCC1` [Example 25] fall in the same range of IC50: 0.251 to 0.5 µM for the first, 0.251 to 0.5 µM for the second.

`Cn1cnc2c(Nc3ccc(-c4cn[nH]c4)cc3)nc(-c3cccc(NC(=O)CN4CCOCC4)c3)nc21` [Example 6, N-(3-(6-((4-(1H-pyrazol-4-yl)phenyl)amino)-9-methyl-9H-purin-2-yl)phenyl)-2-morpholinoacetamide] and `O=C(CN1CCOCC1)Nc1cccc(-c2nc(Nc3ccc(-c4cn[nH]c4)cc3)c3sccc3n2)c1` [Example 8, N-(3-(4-((4-(1H-pyrazol-4-yl)phenyl)amino)thieno[3,2-d]pyrimidin-2-yl)phenyl)-2-morpholinoacetamide] cannot be ordered by IC50: greater than 1 µM for the first, greater than 1 µM for the second.

First: CC(C)NC(=O)COc1cccc(-c2nc(Nc3ccc(-c4cn[nH]c4)cc3)c3ccsc3n2)c1 [Example 9, 2-(3-(4-((4-(1H-pyrazol-4-yl)phenyl)amino)thieno[2,3-d]pyrimidin-2-yl)phenoxy)-N-isopropylacetamide]
Second: CNC(=O)COc1cccc(-c2nc(Nc3ccc(-c4cn[nH]c4)cc3)c3ccsc3n2)c1 [Example 45, 2-(3-(4-((4-(1H-pyrazol-4-yl)phenyl)amino)thieno[2,3-d]pyrimidin-2-yl)phenoxy)-N-methylacetamide]
The IC50 of the first is lower: 0.101 to 0.25 µM for the first, greater than 1 µM for the second. The first is the more potent here.

`O=C(CN1CCOCC1)Nc1cccc(-c2nc(Nc3ccc(-c4cn[nH]c4)cc3)c3ccsc3n2)c1` [Example 10, N-(3-(4-((4-(1H-pyrazol-4-yl)phenyl)amino)thieno[2,3-d]pyrimidin-2-yl)phenyl)-2-morpholinoacetamide] and `O=C(CN1CCOCC1)Nc1cccc(-c2nc(Nc3ccc4[nH]ncc4c3)c3ccsc3n2)c1` [Example 18] cannot be ordered by IC50: greater than 1 µM for the first, greater than 1 µM for the second.

`CC(C)NC(=O)COc1cccc(-c2nc3c(c(Nc4ccc5[nH]ncc5c4)n2)COC3)c1` [Example 11, 2-(3-(4-((1H-indazol-5-yl)amino)-5,7-dihydrofuro[3,4-d]pyrimidin-2-yl)phenoxy)-N-isopropylacetamide] and `CC(C)NC(=O)COc1cccc(-c2nc(Nc3ccc4[nH]ncc4c3)c3sccc3n2)c1` [Example 15] cannot be ordered by IC50: greater than 1 µM for the first, greater than 1 µM for the second.

`CC(C)NC(=O)COc1cccc(-c2nc(Nc3ccc4[nH]ncc4c3)c3ncn(C)c3n2)c1` [Example 13] and `CC(C)NC(=O)COc1cccc(-c2nc(Nc3ccc4[nH]ncc4c3)c3ccsc3n2)c1` [Example 17] cannot be ordered by IC50: greater than 1 µM for the first, greater than 1 µM for the second.

`Cn1cnc2c(Nc3ccc4[nH]ncc4c3)nc(-c3cccc(NC(=O)CN4CCOCC4)c3)nc21` [Example 14] and `O=C(CN1CCOCC1)Nc1cccc(-c2nc(Nc3ccc4[nH]ncc4c3)c3sccc3n2)c1` [Example 16] cannot be ordered by IC50: greater than 1 µM for the first, greater than 1 µM for the second.

Compared with `O=C(COc1cccc(-c2nc(Nc3ccc(-c4cn[nH]c4)cc3)c3sccc3n2)c1)NC1CC1` [Example 20], `CNC(=O)COc1cccc(-c2nc(Nc3ccc(-c4cn[nH]c4)cc3)c3sccc3n2)c1` [Example 40, 2-(3-(4-((4-(1H-pyrazol-4-yl)phenyl)amino)thieno[3,2-d]pyrimidin-2-yl)phenoxy)-N-methylacetamide] is higher in IC50: 0.501 to 1 µM for the first, greater than 1 µM for the second. The first is the more potent here.

First: Cn1cnc2c(Nc3ccc(-c4cn[nH]c4)cc3)nc(-c3cccc(OCC(=O)NC4CC4)c3)nc21 [Example 22]
Second: Cn1cnc2c(Nc3ccc(-c4cn[nH]c4)cc3)nc(-c3cccc(OCC(=O)NC4CCC4)c3)nc21 [Example 29]
The IC50 of the first is higher: greater than 1 µM for the first, 0.251 to 0.5 µM for the second. The second is the more potent here.

First: O=C(COc1cccc(-c2nc(Nc3ccc(-c4cn[nH]c4)cc3)c3occc3n2)c1)NC1CCCC1 [Example 26]
Second: O=C(COc1cccc(-c2nc(Nc3ccc(-c4cn[nH]c4)cc3)c3ccsc3n2)c1)NC1CCCC1 [Example 28]
The IC50 of the first is higher: 0.251 to 0.5 µM for the first, 0.101 to 0.25 µM for the second.

First: O=C(COc1cccc(-c2nc(Nc3ccc(-c4cn[nH]c4)cc3)c3ccsc3n2)c1)NC1CCC1 [Example 27]
Second: CCCNC(=O)COc1cccc(-c2nc(Nc3ccc(-c4cn[nH]c4)cc3)c3ccsc3n2)c1 [Example 46, 2-(3-(4-((4-(1H-pyrazol-4-yl)phenyl)amino)thieno[2,3-d]pyrimidin-2-yl)phenoxy)-N-propylacetamide]
The IC50 of the first is lower: 0.101 to 0.25 µM for the first, 0.501 to 1 µM for the second.

First: Cn1cnc2c(Nc3ccc(-c4cn[nH]c4)cc3)nc(-c3cccc(OCC(=O)NC4CCCC4)c3)nc21 [Example 30]
Second: O=C(COc1cccc(-c2nc(Nc3ccc(-c4cn[nH]c4)cc3)c3ncccc3n2)c1)NC1CCCC1 [Example 51, 2-(3-(4-((4-(1H-pyrazol-4-yl)phenyl)amino)pyrido[3,2-d]pyrimidin-2-yl)phenoxy)-N-cyclopentylacetamide]
The IC50 of the first is higher: 0.101 to 0.25 µM for the first, 0.01 to 0.1 µM for the second. The second is the more potent here.

First: CC(C)NC(=O)COc1cc(F)cc(-c2nc3c(c(Nc4ccc(-c5cn[nH]c5)cc4)n2)COC3)c1 [Example 33]
Second: CC(C)NC(=O)COc1cc(F)cc(-c2nc(Nc3ccc(-c4cn[nH]c4)cc3)c3sccc3n2)c1 [Example 34]
The IC50 of the first is lower: 0.501 to 1 µM for the first, greater than 1 µM for the second. The first is the more potent here.

`CC(C)NC(=O)COc1cc(F)cc(-c2nc(Nc3ccc(-c4cn[nH]c4)cc3)c3ccsc3n2)c1` [Example 35] and `CC(C)NC(=O)COc1cc(F)cc(-c2nc(Nc3ccc(-c4cn[nH]c4)cc3)c3ncn(C)c3n2)c1` [Example 36] cannot be ordered by IC50: greater than 1 µM for the first, greater than 1 µM for the second.

`O=C(COc1cccc(-c2nc3c(c(Nc4ccc(-c5cn[nH]c5)cc4)n2)COC3)c1)N1CCOCC1` [Example 37, 2-(3-(4-((4-(1H-pyrazol-4-yl)phenyl)amino)-5,7-dihydrofuro[3,4-d]pyrimidin-2-yl)phenoxy)-1-morpholinoethan-1-one] and `CNC(=O)COc1cccc(-c2nc3c(c(Nc4ccc(-c5cn[nH]c5)cc4)n2)COC3)c1` [Example 42, 2-(3-(4-((4-(1H-pyrazol-4-yl)phenyl)amino)-5,7-dihydrofuro[3,4-d]pyrimidin-2-yl)phenoxy)-N-methylacetamide] cannot be ordered by IC50: greater than 1 µM for the first, greater than 1 µM for the second.

First: O=C(COc1cccc(-c2nc(Nc3ccc(-c4cn[nH]c4)cc3)c3sccc3n2)c1)N1CCOCC1 [Example 38, 2-(3-(4-((4-(1H-pyrazol-4-yl)phenyl)amino)thieno[3,2-d]pyrimidin-2-yl)phenoxy)-1-morpholinoethan-1-one]
Second: O=C(COc1cccc(-c2nc(Nc3ccc(-c4cn[nH]c4)cc3)c3ccsc3n2)c1)N1CCOCC1 [Example 39, 2-(3-(4-((4-(1H-pyrazol-4-yl)phenyl)amino)thieno[2,3-d]pyrimidin-2-yl)phenoxy)-1-morpholinoethan-1-one]
The IC50 of the first is lower: 0.501 to 1 µM for the first, greater than 1 µM for the second. The first is the more potent here.

First: CCCNC(=O)COc1cccc(-c2nc(Nc3ccc(-c4cn[nH]c4)cc3)c3sccc3n2)c1 [Example 41, 2-(3-(4-((4-(1H-pyrazol-4-yl)phenyl)amino)thieno[3,2-d]pyrimidin-2-yl)phenoxy)-N-propylacetamide]
Second: CC(C)CNC(=O)COc1cccc(-c2nc(Nc3ccc(-c4cn[nH]c4)cc3)c3ncccc3n2)c1 [Example 53, 2-(3-(4-((4-(1H-pyrazol-4-yl)phenyl)amino)pyrido[3,2-d]pyrimidin-2-yl)phenoxy)-N-isobutylacetamide]
The IC50 of the first is higher: greater than 1 µM for the first, 0.101 to 0.25 µM for the second.

First: O=C(Nc1cccc(-c2nc3c(c(Nc4ccc(-c5cn[nH]c5)cc4)n2)COC3)c1)c1cccnc1 [Example 47, N-(3-(4-((4-(1H-pyrazol-4-yl)phenyl)amino)-5,7-dihydrofuro[3,4-d]pyrimidin-2-yl)phenyl)nicotinamide]
Second: CC(C(=O)Nc1cccc(-c2nc(Nc3ccc(-c4cn[nH]c4)cc3)c3ncccc3n2)c1)N1CCOCC1 (stereo not drawn) [Example 50, N-(3-(4-((4-(1H-pyrazol-4-yl)phenyl)amino)pyrido[3,2-d]pyrimidin-2-yl)phenyl)-2-morpholinopropanamide]
The IC50 of the first is lower: 0.01 to 0.1 µM for the first, 0.501 to 1 µM for the second. The first is the more potent here.

First: CC(C)NC(=O)COc1cccc(-c2nc(Nc3ccc(-c4cn[nH]c4)cc3)c3ncccc3n2)c1 [Example 48, 2-(3-(4-((4-(1H-pyrazol-4-yl)phenyl)amino)pyrido[3,2-d]pyrimidin-2-yl)phenoxy)-N-isopropylacetamide]
Second: CC(C)NC(=O)COc1cccc(-c2nc(Nc3ccc(-c4cn[nH]c4)cc3)c3cccnc3n2)c1 [Example 52, 2-(3-(4-((4-(1H-pyrazol-4-yl)phenyl)amino)pyrido[2,3-d]pyrimidin-2-yl)phenoxy)-N-isopropylacetamide]
The IC50 of the first is higher: greater than 1 µM for the first, 0.501 to 1 µM for the second.

With `O=C(COc1cccc(-c2nc(Nc3ccc(-c4cn[nH]c4)cc3)c3ncccc3n2)c1)NC1CCC1` [Example 49, 2-(3-(4-((4-(1H-pyrazol-4-yl)phenyl)amino)pyrido[3,2-d]pyrimidin-2-yl)phenoxy)-N-cyclobutylacetamide] the IC50 was 0.101 to 0.25 µM.
